Like-named read-outs stand apart in the source and are kept apart here.
Assays:
[1] = test system: MK801-induced hyperlocomotion in mice; assay: Open field test, MK801-induced hyperlocomotion (schizophrenia-like model); type: in vivo, C57B6 male mice; conditions: for inhibition of MK801-induced hyperlocomotion in mice (in words): at different doses
Description: Experimental method: The experimental animals were C57B6 male mice, n=8 in each group. In this model, C57B6 mice were used as experimental animals. Hyperlocomotion of the mice in open field was induced by acute injection of a NMDA antagonist MK801, and modeled to test the inhibitory effect of different compounds on hyperlocomotion phenotype induced by MK801 All mouse behavior experiments were carried out during the light period. The whole process was recorded by the camera, and locomotive data were tracked and analyzed by behavioral tracking software. The compounds were administered intraperitoneally. Immediately after the injection, the mice entered the open field and their movement trajectories were recorded by the camera. After 30 minutes, the mice received 0.2 mg/kg of MK801 by intraperitoneal injection and returned to the open field immediately after administration, and the movement trajectories were further recorded for 120 minutes. The accumulative travelled distance of the mice was counted in a 5-minute bin. Data statistics were performed using Student-t-test analysis, *p<0.05, **p<0.01, ***p<0.001, ****p<0.0001. The total travelled distance of the mice in the 0-45 minute interval after administration of the compounds of the present disclosure at different doses in combination with MK801 (0.2 mg/kg) is shown in Table 10.

[2] = Brain permeability test, single intraperitoneal dose in C57 male mice; type: in vivo; conditions: intraperitoneal 5 mg/kg; for concentration at 0.5 h / concentration at 2 h / Kp at 0.5 h / Kp at 2 h / Kp at 4 h / Kp / concentration at 4 h / AUC: male, C57, mouse; for Kp at 0.5 h / Kp at 2 h / Kp at 4 h / Kp: brain/plasma; for Kp at 0.5 h / Kp at 2 h / Kp at 4 h / Kp / AUC: ip; for Kp at 0.5 h: read-out: 0.5 h ratio (brain/plasma); for Kp at 2 h: read-out: 2.0 h ratio (brain/plasma); for Kp at 4 h: read-out: 4.0 h ratio (brain/plasma); for Kp: read-out: AUC ratio (brain/plasma)
Description: Using the same method as that in the pharmacokinetic experiment, 0.030 mL of blood was collected from the orbit of each animal at 0.5 hours, 2.0 hours, and 4.0 hours, and anticoagulated with EDTA-K2. Blood samples were placed on ice after collection, and plasma was separated by centrifugation within 30 minutes (centrifugation conditions: 5000 rpm, 10 minutes, 4° C.). The collected plasma was stored at −80° C. before analysis. […] The homogenate was stored at −80° C. before analysis. Drug concentrations in plasma and brain tissues were analyzed by LC/MS/MS for comparison.

[3] = target: 5-HT2A receptors (Homo sapiens (Human), UniProt P28223); assay: 5-HT2A receptor radioligand competition binding assay ([3H]-ketanserin); conditions: for Ki: read-out: Ki
Sequence of 5-HT2A receptors (P28223 whole entry): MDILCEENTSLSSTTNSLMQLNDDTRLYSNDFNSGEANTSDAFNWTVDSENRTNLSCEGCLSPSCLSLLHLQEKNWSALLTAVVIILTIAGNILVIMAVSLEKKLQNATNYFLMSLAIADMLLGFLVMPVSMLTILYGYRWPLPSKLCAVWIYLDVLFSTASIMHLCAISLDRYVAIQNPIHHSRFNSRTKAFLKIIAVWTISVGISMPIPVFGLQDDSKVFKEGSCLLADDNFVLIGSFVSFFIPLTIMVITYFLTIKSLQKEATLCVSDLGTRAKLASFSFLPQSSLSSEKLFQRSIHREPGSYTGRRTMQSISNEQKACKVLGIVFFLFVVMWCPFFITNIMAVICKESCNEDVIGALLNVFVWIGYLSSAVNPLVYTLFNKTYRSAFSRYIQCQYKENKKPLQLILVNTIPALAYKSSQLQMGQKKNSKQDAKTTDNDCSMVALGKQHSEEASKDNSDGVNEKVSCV
Description: The affinity of the compounds of the present disclosure for 5-HT2A receptors was determined by a radioligand competition binding assay. In the first step, a cell membrane component containing specific 5-HT2A receptor was prepared. A 10 cm dish was used for transfection with […] of 5-HT2A receptors and 40 μL of PEI. After 48 hours, the 10 cm dish was taken out from the cell incubator and the cultured cells had expressed the 5-HT2A receptors. A vacuum pump was used to suck off the culture medium, 3 mL of lysis buffer was added to each culture dish, and the cells were placed in a 4° C. cold room for 10 minutes. After the cells were detached, the cells were transferred to a 15 mL centrifuge tube and centrifuged at 1500 rpm for 5 minutes at 4° C., and the supernatant was discarded. The cell pellet was transferred to a tissue homogenizer, and 3 mL of lysis buffer was added and fully ground until the cells were broken. Then, cell suspension was equally aliquoted into several EP tubes, centrifuged at 12000 rpm for 5 minutes at 4° C., and the supernatant was discarded. The precipitate was the cell membrane component containing the 5-HT2A receptors. […] First, a standard binding buffer was added to the cell membrane component containing the 5-HT2A receptors, and the cell membrane was disrupted and resuspended with an electric tissue homogenizer. 30 μL of membrane protein suspension was added to each well of a 96-well plate. Then, 30 μL of different drugs were added to the 96-well plate sequentially from bottom to top to ensure that the final drug concentrations were 10^−5 M, 10^−6 M, 10^−7 M, 10^−8 M, 10^−9 M, and 0 M, with two replicates per treatment. Next, 30 μL of [^3H]-ketanserin was added to each well of the 96-well plate. The plate was incubated at room temperature in the dark for 2 hours. Detection was conducted. The machine readout value reflected the amount of [^3H]-ketanserin bound on the membrane, and after further data processing, the affinity Ki values of different compounds for the 5-HT2A receptors were obtained.

[4] = MK801 0.2 mg/kg + compound 0.0156 mg/kg i.p.
[5] = MK801 0.2 mg/kg + compound 0.0625 mg/kg i.p.
[6] = MK801 0.2 mg/kg + compound 0.25 mg/kg i.p.
[7] = brain, read-out: 0.5 h brain concentration
[8] = plasma, read-out: 0.5 h plasma concentration
[9] = brain, read-out: 2.0 h brain concentration
[10] = plasma, read-out: 2.0 h plasma concentration
[11] = [3H]-ketanserin, 293T membranes
[12] = brain, read-out: 4.0 h brain concentration
[13] = plasma, read-out: 4.0 h plasma concentration

| SMILES | Distance travelled in 45 minutes [1, 4] | Distance travelled in 45 minutes [1, 5] | Distance travelled in 45 minutes [1, 6] | inhibition of MK801-induced hyperlocomotion in mice (in words) [1] | concentration at 0.5 h [2, 7] | concentration at 0.5 h [2, 8] | concentration at 2 h [2, 9] | concentration at 2 h [2, 10] | affinity for 5-HT2A receptors (in words) [3] | Ki [3, 11] | Kp at 0.5 h [2] | Kp at 2 h [2] | AUC brain ([2]; brain) | Kp at 4 h [2] | Kp [2] | concentration at 4 h [2, 12] | concentration at 4 h [2, 13] | AUC ([2]; plasma) | further results |
| --- | --- | --- | --- | --- | --- | --- | --- | --- | --- | --- | --- | --- | --- | --- | --- | --- | --- | --- | --- |
| COc1cccc2c3c(oc12)CN(CCCCOc1ccc2ccc(=O)[nH]c2c1)CC3 [I-A1, 7-(4-(8-methoxy-3,4-dihydrobenzofuro[2,3-c]pyridin-2(1H)-yl)butoxy)quinolin-2(1H)-one] | 9023 cm | 10706 cm | 3630 cm | significantly inhibit | 1110 ± 43 ng/mL | 2220 ± 447 ng/mL | 236 ± 25 ng/mL | 397 ± 26.3 ng/mL | very weak affinity | 1790 nM |  |  |  |  |  |  |  |  | pKi ± SEM [3, 11]: (5.74 ± 0.03) |
| COc1cccc2c3c(oc12)CN(CC[C@H]1CC[C@H](NC(=O)N(C)C)CC1)CC3 [I-A12, 3-(trans-4-(2-(8-methoxy-3,4-dihydrobenzofuro[2,3-c]pyridin-2(1H)-yl)ethyl)cyclohexyl)-1,1-dimethylurea] | 12729 cm | 5648 cm | 2267 cm | significantly inhibit | 1400 ± 220 ng/mL | 830 ± 119 ng/mL | 455 ± 61 ng/mL | 202 ± 56.2 ng/mL |  |  | 1.69 | 2.26 |  |  |  |  |  |  |  |
| COc1cccc2c3c([nH]c12)CN(CC[C@H]1CC[C@H](NC(=O)N(C)C)CC1)CC3 [I-B7, 3-(trans-4-(2-(8-methoxy-1,3,4,9-tetrahydro-2H-pyrido[3,4-b]indol-2-yl)ethyl)cyclohexyl)-1,1-dimethylurea] |  |  | 13668 cm | significantly inhibit | 392 ± 15 ng/mL | 598 ± 19 ng/mL | 73 ± 129 ng/mL | 114 ± 67.9 ng/mL | very weak affinity | 3510 nM | 0.656 | 0.643 |  |  |  |  |  |  | Distance travelled in 45 minutes ([1]; MK801 0.2 mg/kg + compound 1 mg/kg i.p.): 10199 cm; Distance travelled in 45 minutes ([1]; MK801 0.2 mg/kg + compound 4 mg/kg i.p.): 4360 cm |
| COc1cccc2c1cc1n2CCN(CCCCOc2ccc3ccc(=O)[nH]c3c2)C1 [I-C1, 7-(4-(9-methoxy-3,4-dihydropyrazino[1,2-a]indol-2(1H)-yl)butoxy)quinolin-2(1H)-one] |  |  |  |  | 1940 ± 63 ng/mL | 4060 ± 367 ng/mL | 732 ± 56 ng/mL | 1100 ± 89 ng/mL |  |  | 0.478 | 0.663 | 3385 ng·h/mL | 0.541 | 0.538 | 161 ± 55 ng/mL | 297 ± 106 ng/mL | 6290 ng·h/mL |  |
| COc1cccc2c1cc1n2CCN(CCCCOc2ccc3c(c2)NC(=O)CC3)C1 [I-C2, 7-(4-(9-methoxy-3,4-dihydropyrazino[1,2-a]indol-2(1H)-yl)butoxy)-3,4-dihydroquinolin-2(1H)-one] |  |  |  |  | 2800 ± 208 ng/mL | 3280 ± 456 ng/mL | 1260 ± 279 ng/mL | 1510 ± 545 ng/mL |  |  | 0.855 | 0.834 | 5561 ng·h/mL | 0.931 | 0.853 | 599 ± 54 ng/mL | 558 ± 100 ng/mL | 6520 ng·h/mL |  |
